Tests used:
Assay type in all cases: cell-based
[1] = test system: Mosaic cells cultured on HF scaffolds; test: Mosaic assay Adriamycin dose test (fractal dimension of cell morphology); details: 0.5 and 1 μg/mL ADR; only with Mosaic cells cultured on HF scaffolds (not NT); FIG. 6e, 6f
Source text: To develop the mosaic assay, populations of fluorescent cells were mixed with optically silent cells and monitored for over 14 days in the mouse cell line, and over 5 days in the human cell line. For long-term live cell labeling, adenovirus transduction of eGFP (Vector Biolabs, #1060) was utilized at an MOI of 1000 in the mouse podocyte cell line, and MOI of 10 in the human podocyte cell line. Cells were transduced one day after seeding and attachment, when cultures were 75% confluent. Virus handling protocols were used, including wearing additional disposable PPE (lab coat, shoe covers, elbow-length and double gloves, and face mask). […]
The next day, virus was removed and puromycin was applied at 8 μg/mL to select fluorescent cells for 48 hours. […] The mosaic assay was assessed using the Zeiss […] super resolution confocal microscope to allow sufficient resolution to see interdigitating foot processes. […]
Images of single fluorescent cells from the mosaic assay (used in topography, model virus, Adriamycin, and patient serum experiments) were first processed using Zeiss's ZenDesk software to facilitate delineation of whole single cell morphology as follows: the FITC channel was adjusted by setting gamma to 2.5 and adjusting the white point to 30. […] The sequence was recorded as a macro to facilitate automation and thus performed blindly and equivalently to all sample images. […]

[2] = test system: human podocyte cell line on HF substrates; test: Lactate dehydrogenase (LDH) release assay of Mosaic assay cells; details: dose of 1 μM, FIG. 13d
Protocol: YAP Inhibition Study: HF and NT scaffolds were prepared as described above. Mosaic human podocytes were seeded on top of the scaffolds at a concentration of 50,000 cells/cm^2 (100,000 cells per scaffold). […] Samples were fixed on day 5. Media was collected and lactate dehydrogenase assay (LDH) assay (Cayman) was performed according to manufacturer's protocol to validate cell viability. Mosaic assay imaging and analysis were performed as described above.

[3] = test system: human podocyte cell line on HF substrates; test: YAP inhibition study, Mosaic assay fractal dimension of whole cell morphology; details: dose of 1 μM, in comparison to the inhibitor-free control, FIG. 13e
Protocol: Mosaic Assay: Mosaic Podo/Tert256 human podocytes (a mixture of GFP-labelled cells and non-fluorescent cells at a ratio of 1:11) were cultured and seeded in the same way as regular human podocytes as described above. At the study endpoint, cells were fixed with PFA, stained with rhodamine-wheat germ agglutinin (WGA), and mounted with DAPI-containing mounting media as described above. Samples were imaged via confocal microscopy using a Zeiss LSM 880 Super Resolution Confocal microscope to allow sufficient resolution to visualize interdigitated morphology. Z-stacked images spanning the entire section with visible signals were taken for each sample. The images were first processed using Zeiss's ZenDesk software to increase the contrast of GFP-positive cells' morphology as follows: the FITC channel was adjusted by setting gamma to 2.5 and adjusting the white point to 30. The DAPI channel's white point was adjusted to 80. In Photoshop or Fiji, the magic wand tool was used to select single fluorescent cells, create binary masks, and export binary images of single cells. Single cells were verified by overlaying nuclei with the cell images to ensure each cell only contained one nucleus. Binary images were then outlined in Fiji, and fractal analysis was performed using the FracLac plugin where the standard box-counting algorithm was used, with the background locked to white. […]

Compound	injury response: fractal dimension of cell morphology [1]	cell viability (LDH release) [2]	Df of podocyte morphology [3]
COc1cccc2c1C(=O)c1c(O)c3c(c(O)c1C2=O)C[C@@](O)(C(=O)CO)C[C@@H]3O[C@H]1C[C@H](N)[C@H](O)[C@H](C)O1 [Adriamycin, doxorubicin]	reduced fractal dimension of cell morphology	–	–
Verteporfin	–	did not show any significant deterioration of cell viability	decreased significantly

From US20240002809A1, “FRACTAL CUES SUPPORT HIERARCHICAL MATURATION OF CELLS VIA CURVATURE-INDUCED PATTERNING” (The Governing Council of the University of Toronto, priority 2022, published 2024)
